Measurements from the supplement of paper PMC10307832.

How the values were obtained:
Assay in all cases: relative viability (nuclei count vs DMSO), 5 days (fraction); higher = more cells survive
NCI-H661 = tested on: NCI-H661
How it was run: (§1)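 Nuclei were stained with Hoechst during a one-step fixation (final 0.05% Triton X-100, 1% formaldehyde, 1 ug/ml Hoechst) carried out 5 days after dosing, then counted on 4× images. The cells, lung cancer lines in 1536-well plates, had been dosed by pin tool the day after seeding with one drug alone or a fixed anchor-drug dose plus five library-drug doses (not always all listed) in √10 steps. Relative viability is the nuclei count in treated wells divided by that in vehicle wells, and each value is the median of duplicate plates.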

201T = tested on: 201T
How it was run: as §1

NCI-H1666 = tested on: NCI-H1666
How it was run: as §1

BEN = tested on: BEN
How it was run: as §1

NCI-H2170 = tested on: NCI-H2170
How it was run: as §1

NCI-H2009 = tested on: NCI-H2009
How it was run: as §1

HCC-366 = tested on: HCC-366
How it was run: as §1

CAL-12T = tested on: CAL-12T
How it was run: as §1

EKVX = tested on: EKVX
How it was run: as §1

NCI-H460 = tested on: NCI-H460
How it was run: as §1

COR-L 105 = tested on: COR-L 105
How it was run: as §1

NCI-H441 = tested on: NCI-H441
How it was run: as §1

NCI-H3122 = tested on: NCI-H3122
How it was run: as §1

NCI-H727 = tested on: NCI-H727
How it was run: as §1

PC-14 = tested on: PC-14
How it was run: as §1

NCI-H1650 = tested on: NCI-H1650
How it was run: as §1

SW 900 = tested on: SW 900
How it was run: as §1

LOU-NH91 = tested on: LOU-NH91
How it was run: as §1

ABC-1 = tested on: ABC-1
How it was run: as §1

LK-2 = tested on: LK-2
How it was run: as §1

HARA = tested on: HARA
How it was run: as §1

NCI-H1437 = tested on: NCI-H1437
How it was run: as §1

Work on `CCN(CC)CCCCNc1ncc2cc(-c3cc(OC)cc(OC)c3)c(NC(=O)NC(C)(C)C)nc2n1` + Cc1nc(Nc2ncc(C(=O)Nc3c(C)cccc3Cl)s2)cc(N2CCN(CCO)CC2)n1 [Dasatinib] (partner 0.075 µM) yielded a relative viability (NCI-H661; first compound 0.01 µM) of 0.906, a relative viability (NCI-H661; first compound 0.03162 µM) of 0.841 and a relative viability (NCI-H661; first compound 0.1 µM) of 1.1. For the same compound, the relative viability (NCI-H661; first compound 0.3162 µM) was 1.03, the relative viability (NCI-H661; first compound 1 µM) was 0.644 and the relative viability (201T; first compound 0.01 µM) was 0.553. For the same compound, the relative viability (201T; first compound 0.03162 µM) was 0.568, the relative viability (201T; first compound 0.1 µM) was 0.677 and the relative viability (201T; first compound 0.3162 µM) was 0.568. The relative viability (201T; first compound 1 µM) was 0.635, the relative viability (NCI-H1666; first compound 0.01 µM) was 0.824 and the relative viability (NCI-H1666; first compound 0.03162 µM) was 0.757. For the same compound, the relative viability (NCI-H1666; first compound 0.1 µM) was 0.942, the relative viability (NCI-H1666; first compound 0.3162 µM) was 0.884 and the relative viability (NCI-H1666; first compound 1 µM) was 0.639. The relative viability (BEN; first compound 0.01 µM) was 0.298, the relative viability (BEN; first compound 0.03162 µM) was 0.282 and the relative viability (BEN; first compound 0.1 µM) was 0.359. For the same compound, the relative viability (BEN; first compound 0.3162 µM) was 0.353, the relative viability (BEN; first compound 1 µM) was 0.26 and the relative viability (NCI-H2170; first compound 0.01 µM) was 0.537. It also gave a relative viability (NCI-H2170; first compound 0.03162 µM) of 0.574, a relative viability (NCI-H2170; first compound 0.1 µM) of 0.643 and a relative viability (NCI-H2170; first compound 0.3162 µM) of 0.818. It also gave a relative viability (NCI-H2170; first compound 1 µM) of 0.539, a relative viability (NCI-H2009; first compound 0.01 µM) of 0.299 and a relative viability (NCI-H2009; first compound 0.03162 µM) of 0.316. The relative viability (NCI-H2009; first compound 0.1 µM) was 0.347, the relative viability (NCI-H2009; first compound 0.3162 µM) was 0.292 and the relative viability (NCI-H2009; first compound 1 µM) was 0.246. It also gave a relative viability (HCC-366; first compound 0.01 µM) of 0.601, a relative viability (HCC-366; first compound 0.03162 µM) of 0.686 and a relative viability (HCC-366; first compound 0.1 µM) of 0.942. It also gave a relative viability (HCC-366; first compound 0.3162 µM) of 0.659, a relative viability (HCC-366; first compound 1 µM) of 0.613 and a relative viability (CAL-12T; first compound 0.01 µM) of 0.389. The relative viability (CAL-12T; first compound 0.03162 µM) was 0.525, the relative viability (CAL-12T; first compound 0.1 µM) was 0.435 and the relative viability (CAL-12T; first compound 0.3162 µM) was 0.371. It also gave a relative viability (CAL-12T; first compound 1 µM) of 0.417, a relative viability (EKVX; first compound 0.01 µM) of 0.547 and a relative viability (EKVX; first compound 0.03162 µM) of 0.604. For the same compound, the relative viability (EKVX; first compound 0.1 µM) was 0.57, the relative viability (EKVX; first compound 0.3162 µM) was 0.563 and the relative viability (EKVX; first compound 1 µM) was 0.349. It also gave a relative viability (NCI-H460; first compound 0.01 µM) of 0.538, a relative viability (NCI-H460; first compound 0.03162 µM) of 0.464 and a relative viability (NCI-H460; first compound 0.1 µM) of 0.81. It also gave a relative viability (NCI-H460; first compound 0.3162 µM) of 0.709, a relative viability (NCI-H460; first compound 1 µM) of 0.395 and a relative viability (COR-L 105; first compound 0.01 µM) of 0.297. It also gave a relative viability (COR-L 105; first compound 0.03162 µM) of 0.282, a relative viability (COR-L 105; first compound 0.1 µM) of 0.354 and a relative viability (COR-L 105; first compound 0.3162 µM) of 0.381. The relative viability (COR-L 105; first compound 1 µM) was 0.279, the relative viability (NCI-H441; first compound 0.01 µM) was 0.68 and the relative viability (NCI-H441; first compound 0.03162 µM) was 0.572. For the same compound, the relative viability (NCI-H441; first compound 0.1 µM) was 0.604, the relative viability (NCI-H441; first compound 0.3162 µM) was 0.775 and the relative viability (NCI-H441; first compound 1 µM) was 0.554. For the same compound, the relative viability (NCI-H3122; first compound 0.01 µM) was 0.876, the relative viability (NCI-H3122; first compound 0.03162 µM) was 0.914 and the relative viability (NCI-H3122; first compound 0.1 µM) was 0.939. It also gave a relative viability (NCI-H3122; first compound 0.3162 µM) of 0.954, a relative viability (NCI-H3122; first compound 1 µM) of 0.842 and a relative viability (NCI-H727; first compound 0.01 µM) of 0.177. The relative viability (NCI-H727; first compound 0.03162 µM) was 0.424, the relative viability (NCI-H727; first compound 0.1 µM) was 0.385 and the relative viability (NCI-H727; first compound 0.3162 µM) was 0.507. It also gave a relative viability (NCI-H727; first compound 1 µM) of 0.351, a relative viability (PC-14; first compound 0.01 µM) of 0.263 and a relative viability (PC-14; first compound 0.03162 µM) of 0.268. It also gave a relative viability (PC-14; first compound 0.1 µM) of 0.276, a relative viability (PC-14; first compound 0.3162 µM) of 0.264 and a relative viability (PC-14; first compound 1 µM) of 0.162. It also gave a relative viability (NCI-H1650; first compound 0.01 µM) of 0.319, a relative viability (NCI-H1650; first compound 0.03162 µM) of 0.286 and a relative viability (NCI-H1650; first compound 0.1 µM) of 0.375. For the same compound, the relative viability (NCI-H1650; first compound 0.3162 µM) was 0.21, the relative viability (NCI-H1650; first compound 1 µM) was 0.191 and the relative viability (SW 900; first compound 0.01 µM) was 0.346. It also gave a relative viability (SW 900; first compound 0.03162 µM) of 0.673, a relative viability (SW 900; first compound 0.3162 µM) of 0.345 and a relative viability (SW 900; first compound 1 µM) of 0.268. It also gave a relative viability (LOU-NH91; first compound 0.01 µM) of 0.51, a relative viability (LOU-NH91; first compound 0.03162 µM) of 0.521 and a relative viability (LOU-NH91; first compound 0.1 µM) of 0.629. For the same compound, the relative viability (LOU-NH91; first compound 0.3162 µM) was 0.718, the relative viability (LOU-NH91; first compound 1 µM) was 0.57 and the relative viability (ABC-1; first compound 0.01 µM) was 0.617. For the same compound, the relative viability (ABC-1; first compound 0.03162 µM) was 0.541, the relative viability (ABC-1; first compound 0.1 µM) was 0.618 and the relative viability (ABC-1; first compound 0.3162 µM) was 0.548. It also gave a relative viability (ABC-1; first compound 1 µM) of 0.535, a relative viability (LK-2; first compound 0.01 µM) of 0.29 and a relative viability (LK-2; first compound 0.03162 µM) of 0.267. It also gave a relative viability (LK-2; first compound 0.1 µM) of 0.254, a relative viability (LK-2; first compound 0.3162 µM) of 0.188 and a relative viability (LK-2; first compound 1 µM) of 0.212. The relative viability (HARA; first compound 0.01 µM) was 0.284, the relative viability (HARA; first compound 0.03162 µM) was 0.246 and the relative viability (HARA; first compound 0.1 µM) was 0.312. The relative viability (HARA; first compound 0.3162 µM) was 0.142, the relative viability (HARA; first compound 1 µM) was 0.237 and the relative viability (NCI-H1437; first compound 0.01 µM) was 0.366. The relative viability (NCI-H1437; first compound 0.03162 µM) was 0.504, the relative viability (NCI-H1437; first compound 0.1 µM) was 0.419 and the relative viability (NCI-H1437; first compound 0.3162 µM) was 0.447. The relative viability (NCI-H1437; first compound 1 µM) was 0.335.
